From patent US8134017B1, “Compound and use thereof” (Riken, priority 2010, dated 2012)
Values joined by “and” are separate entries in the source; they are usually repeats but may differ in a detail not shown here. Equal entries are not always repeated.

How the values were obtained:
Type in all cases: physicochemical
[1] = Emission spectra, aggregation-induced emission enhancement (AIEE)
Method: (§1) UV-vis spectra were collected on a SHIMADZU UV-1700 spectrophotometer at RT (room temperature) using a 1 cm or a 0.1 cm quartz cuvette. Emission spectra were collected on a HITACHI F-4500 fluorescence spectrophotometer. To obtain an accurate spectrum, spectrum correction was carried out with rhodamine B concentrated solution and a secondary-standard light source. In surface photometry, a cut filter was utilized to eliminate multiple lights, such as secondary light, due to the effects of light scattering. Fluorescence spectra of all samples were measured with excitation with 365 nm. Average particle size was measured by dynamic light scattering (ELSZ-2, Otsuka Electronics).
In contrast, the emission behavior of rhodamines in aqueous solution was reported to decrease at 10^−4 M and above because of the formation of the H-dimer. The behavior of ABPX01^+ was directly opposite to the concentration quenching of common hydrophobic dyes.
The AIEE characteristics of 500 μM of ABPX01^+ to ABPX04^+ were investigated in various solvents. […] The emission spectrum of 500 μM of ABPX01^+ in THF was nonemissive.
The problem was solved by using the surface photometric method (FIG. 12). Explained below are the respective surface photometric equipment configurations. […] The problem was solved by using the surface photometric method. A sample holder was set at an angle of 30° with respect to the excitation light. However, attention should be paid to the linearity of the emission intensity against the concentration for the accurate evaluation of high-concentration sample solutions, such as AIEE molecules. In addition, the relative quantum yields of ABPX in solution could not be determined because of the lack of a standard compound. The use of the surface photometric method allows development of an apparatus for the measurement of the absolute fluorescence quantum yields of high-concentration solutions.
The emission spectra are shown in (a) and (b) of FIG. 13. The emission could be observed when 30% volume fraction of water was added. The emission was enhanced when 50% to 90% volume fraction of water was added. Absorption measurements were similarly carried out in water/THF mixtures (containing 1% TFA). As the water fraction increased, the sharp aggregate spectra appearing at approximately 548 and 600 nm grew, as shown in (c) of FIG. 13. From 30% volume fraction of water addition, level-off tails were seen, which were attributed to Mie scattering caused by nanosized particles.
In order to check whether or not restriction of […] rotation (RIR) is involved in AIEE of ABPX01^+, viscochromism and thermochromism of the ABPX01^+ emission were examined. RIR was affected by the viscosity and temperature of the solvent. […] ABPX01^+ inhibited intramolecular rotation and induced AIEE at high viscosity and low temperature.

[2] = UV-vis absorption spectra; details: 5 M, strong acid TFA/THF mixtures, cationic form
Method: as §1
What molecular species of ABPX are appropriate for the evaluation of AIEE in solution was examined. In order to examine to find the appropriate ABPX01 species, the absorbance spectra of […] of ABPX01 were measured in acid or alkaline solution. In THF solution and 1% TEA/THF mixture, the spectra had no peaks that were attributable to the neutral lactonoid species ABPX01^0. In the strong acid solutions of the TFA/THF mixtures, the absorbance spectra having two peaks at 490 nm and 540 nm should be attributable to the cationic form of ABPX01^+. ABPX01^+ is a quinonoid form delocalized over the luminophore and is therefore appropriate for the emission analysis.
The emission spectra are shown in (a) and (b) of FIG. 13. […]

[3] = Solubility in organic solvents and water
[4] = Particle size of aggregates by dynamic laser scattering (DLS); details: 500 μM, 90% water/THF (1% TFA), 25° C.
Method: as §1
With the use of dynamic laser scattering (DLS), the particle size of ABPX01^+ was examined in 90% water/THF mixtures (containing 1% TFA) at 25° C. […] As illustrated in (b) of FIG. 14, the particle size of ABPX01^+ aggregates was 500 nm immediately after the preparation of ABPX01^+. The ABPX01^+ aggregates then grew to a size of more than 1200 nm after 30 min. The particle size of ABPX01^+ in methanol and chloroform (respectively, containing 1% TFA) could not be calculated because the fluctuation of the scattered photons was not sufficiently observed owing to the subnanometer size.

Substance: 3′,3″-Bis (oxospriroisobenzofuran)-3,7-bis(diethylamino)benzopyranoxanthene [ABPX01]
- AIEE ([1]; 500 μM in 1% TFA/chloroform, methanol, ethanol or acetone): exhibited AIEE
- emission in THF ([1]; 500 μM in THF): nonemissive
- volume fraction of water at which emission could be observed ([1]; 500 μM, water/THF mixtures): 30%
- emission intensity with increasing concentration ([1]; 5, 50, 500 μM in 1% TFA/methanol, excitation 365 nm): increased
- emission with increasing solvent viscosity or decreasing temperature ([1]; glycerol/methanol viscosity increased or methanol temperature decreased): increased
- absorbance peaks [2]: 490 nm and 540 nm
- solubility in THF ([3]; THF): easily dissolved
- solubility in organic solvents ([3]; chloroform, methanol, acetone, THF, ethanol): easy to dissolve
- solubility in water [3]: not easy to dissolve
- solubility in water ([3]; listed as ABPX01^+): not in water
- particle size of aggregates ([4]; after 30 min): more than 1200 nm
- particle size of aggregates ([4]; immediately after preparation): 500 nm
